Measurements published in patent US20060025328A1, “Compositions suitable for controlled release of the hormone GnRH and its analogs” (priority 1997, published 2006).

Test system: LH
Assay: LH concentrations in synchronized dairy heifers, Example 6
Format: in vivo
Conditions: GnRH (100 μg) positive control
Protocol: Experimental formulations were prepared by weighing and mixing SAIB, solvent and deslorelin acetate (DA) to give a final concentration of 25 μg/ml. The SAIB: diluting solvent composition was:SAIB/propylene carbonate 70:30 w/w). Experimental DA Treatments were sterilized using gamma radiation. 30 healthy cyclic dairy heifers weighing about 750-800 lbs (340-364 kg) were used. This study was designed as a parallel group design. All heifers were synchronized using pretreatment with 100 μg GnRH (Cystorellin, Merial, Ltd., Islin, NJ) on day -7 followed by 25 mg PGF2α (Lutalyse Pharmacia-Upjohn Co. Kalamazoo, Mich.) treatment one week later. Forty eight hours after PGF2α treatment heifers received saline (negative controls), Cystorellin ([…]; positive controls) or Deslorelin-SABER (DA-slow delivery preparation; at 12.5, 25, 50 or 100 μg intra-muscular). Blood samples were collected by veni-puncture through shaved and aseptic-swabbed sites at -48, 0, 0.5, 1, 2, 4, 6, 12, 18, 24, 36, and 48 hours after treatment for LH analysis. […] were randomly assigned to one of 6 blinded treatment groups (n=5/group) to avoid interpretation bias.

**Q.** For “GnRH: GnRH (Cystorellin, Merial, Ltd.), positive control (QHWSYGLRPG; Gonadoliberin-1; UniProt P01148 24-33, looked up)”, which “LH concentration at peak (average)” value is on record?
**A.** 22.3 ng/mL

**Q.** What about the “time of peak LH post-treatment” value of the same substance?
**A.** 1 h
